How the values were obtained:
Yeast SIR2p [1] = target: T1, Yeast SIR2p (Saccharomyces cerevisiae, UniProt P06700); experiment: SIR2 nicotinamide base-exchange assay (p53 peptide, HPLC/14C); format: biochemical; details: pH 7.6; read-out: Inhibition of exchange rate (%) yeast
T1 construct: made in house
Description: (§1) After 2 hours, aliquots of 10 μL removed at 0, 30, 60, 90 and 120 min. Each aliquot was combined with 50 μL 50 mM ammonium acetate pH 5.0 to quench and assayed by HPLC for deacetylation products and NAD^+. The chromatograms (260 nm) were obtained using 50 mM ammonium acetate pH 5.0 as eluant on a semi-preparative Waters C-18 column (2.0 mL/min flow rate). Peaks for ADPR and 3′-O-Acetyl-ADPR were quantified by integration. The peak for NAD^+ was collected and radiation counted.

Yeast SIR2p [2] = target: T1, Yeast SIR2p; experiment: SIR2 deacetylation assay (p53 peptide, HPLC of ADPR and 3′-O-acetyl-ADPR); format: biochemical
Description: as §1
Reactions were as above but base reactions contained 5 mM of pyrazinamide, isonicotinamide, thionicotinamide, or benzamide. Reactions were carried out (2 hours for AF2 and yeast enzymes and 3 hours for mouse enzyme) at 37° C. and quenched by addition of 80 μL 50 mM ammonium acetate pH 5.0. Product formation was quantified by HPLC. […] Rates were compared with controls lacking added base.

Bacterial SIR2Af2 = target: T2, Bacterial SIR2Af2 (Archaeoglobus fulgidus, UniProt O30124); experiment: as above; format: biochemical, Archeaglobus fulgidus
T2 construct: made in house
T2 sequence (O30124 1-253): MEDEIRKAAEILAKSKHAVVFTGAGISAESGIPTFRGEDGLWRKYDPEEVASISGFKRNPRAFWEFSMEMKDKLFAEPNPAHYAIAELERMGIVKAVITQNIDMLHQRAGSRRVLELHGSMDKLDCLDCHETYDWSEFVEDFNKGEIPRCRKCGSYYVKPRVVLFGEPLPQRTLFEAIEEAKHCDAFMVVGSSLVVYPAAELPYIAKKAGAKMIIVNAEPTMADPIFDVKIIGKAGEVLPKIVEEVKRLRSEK
Description: as §1, with “counted. […] Plots of deacetylation rate versus nicotinamide were fit to the equations described in the text.” for “counted.”
Reactions were as above but base reactions contained 5 mM of pyrazinamide, isonicotinamide, thionicotinamide, or benzamide. Reactions were carried out (2 hours for AF2 and yeast enzymes and 3 hours for mouse enzyme) at 37° C. and quenched by addition of 80 μL 50 mM ammonium acetate pH 5.0. Product formation was quantified by HPLC. Thionicotinamide-NAD^+ was synthesized by CD38. Rates were compared with controls lacking added base.

[3] = tested on: Sir2-dependent transcriptional silencing at the rDNA locus; experiment: rDNA locus URA3 silencing on FOA-containing media; format: cell-based, yeast; details: RDN1::URA3 strain; 25 mM isonicotinamide
Description: (§2) Ten-fold serial dilutions of yeast strains were spotted onto control (YPD) or selective media (vanLeeuwen and Gottschling, 2002). The photographs were taken after 2 to 3 days incubation. […] Isogenic strains UCC4562 (DOT1) and UCC4554 (dot1Δ) (Singer et al., 1998) are shown in each panel (top and bottom rows, respectively). […] The phenotype of strain CCFY10028 (top row) is compared to an isogenic sir2 derivative (bottom row). The sir2 deletion strain was generated by PCR-mediated gene disruption using a Nat-MX selectable marker (Tong et al., 2004).
Sir2 also localizes to the nucleolus where it functions to propagate a specialized chromatin structure on the rDNA (Rusche at al., 2003). […] Thus, isonicotinamide increases the activity of Sir2 in vivo at all three types of silent loci.

[4] = tested on: Sir2-dependent transcriptional silencing at the silent mating-type loci (HMR, HML); experiment: Silent mating-type locus reporter silencing, spot assay; format: cell-based, yeast
Description: as §2, with “The” for “Ten-fold serial dilutions of yeast strains were spotted onto control (YPD) or selective media (vanLeeuwen and Gottschling, 2002). The”
(§3) The deletion strains were generated by PCR-mediated gene disruption using a Nat-MX selectable marker (Tong et al., 2004). Silencing at TEL-VR::URA3 is reported by survival on FOA-containing media and at HMR::TRP1 is detected by reduced growth on media lacking tryptophan.
The effect of isonicotinamide on Sir2 activity at the silent mating-type loci was measured in an HMR: TRP1 strain by growth on medium lacking tryptophan (FIG. 8b). Silencing of TRP1 decreases growth on Trp^− media.

Yeast Sir2 [5] = target: T3, Yeast Sir2 (Saccharomyces cerevisiae, UniProt P06700); experiment: Sir2 catalyzed base exchange with H4 N-terminal peptide; format: biochemical
Description: (§4) Measurements were performed by methods described in Sauve and Schramm (2003) with the H4N-terminal peptide (AGG(AcK)GG(AcK)GMG(AcK)VGA(AcK)RHSC) (Imai et al., 2000) as substrate.

[6] = tested on: Sir2-dependent transcriptional silencing at telomeres; experiment: Telomeric reporter gene silencing, serial dilution spot assay; format: cell-based, yeast
Description: as §2, with “The” for “Ten-fold serial dilutions of yeast strains were spotted onto control (YPD) or selective media (vanLeeuwen and Gottschling, 2002). The”
as §3
We examined the effect of isonicotinamide on the expression of reporter genes integrated at each of the chromosomal loci that are subject to Sir2-dependent transcriptional silencing. Silencing of a telomeric URA3 gene (TEL-VIIL-URA3) confers resistance to 5-fluoroorotic acid (5-FOA). […] In this strain, silencing is reduced by dispersion of the Sir proteins from the telomeres (van Leeuwen et al., 2002).

Yeast Sir2 [7] = target: T3, Yeast Sir2; experiment: Sir2 catalyzed deacetylation of H4 N-terminal peptide; format: biochemical
Description: as §4

[8] = 125 μM [carbonyl-14C]nicotinamide, increasing isonicotinamide

T1 sequence (P06700 whole entry): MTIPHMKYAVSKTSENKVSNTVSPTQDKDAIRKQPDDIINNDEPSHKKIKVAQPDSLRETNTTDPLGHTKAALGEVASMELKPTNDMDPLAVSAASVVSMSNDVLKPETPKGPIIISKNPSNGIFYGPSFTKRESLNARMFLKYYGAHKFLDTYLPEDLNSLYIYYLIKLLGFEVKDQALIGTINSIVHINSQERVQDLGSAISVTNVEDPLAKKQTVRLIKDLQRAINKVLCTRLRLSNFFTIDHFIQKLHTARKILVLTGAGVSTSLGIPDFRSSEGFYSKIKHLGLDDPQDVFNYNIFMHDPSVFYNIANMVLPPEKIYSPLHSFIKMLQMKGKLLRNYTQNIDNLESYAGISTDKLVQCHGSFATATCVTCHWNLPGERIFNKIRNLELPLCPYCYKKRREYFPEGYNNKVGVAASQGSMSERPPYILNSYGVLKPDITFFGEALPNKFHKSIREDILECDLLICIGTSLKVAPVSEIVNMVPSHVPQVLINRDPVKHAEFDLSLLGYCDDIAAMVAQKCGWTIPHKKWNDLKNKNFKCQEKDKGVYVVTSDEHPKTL
T3 sequence (P06700 whole entry): as above

NC(=O)c1ccncc1 [Isonicotinamide]
inhibition at 42000 µM (Yeast SIR2p [1]): 40% | inhibition at 5000 µM (Yeast SIR2p [2]): 0% | inhibition at 42000 µM (Yeast SIR2p [2]; pH 7.6): 5% | inhibition at 5000 µM (Bacterial SIR2Af2): 4% | silencing at the rDNA locus (resistance to FOA) [3]: increases silencing at the rDNA locus | Sir2 activity at HML ([4]; HML::URA3 strains UCC3515 and UCC4574, FOA-containing medium, data not shown): increased Sir2 activity at HML | growth phenotype of isogenic sir2Δ strain ([4]; HMR::TRP1, Trp− medium): Neither compound altered the growth phenotype | reduction in growth on Trp− medium ([4]; HMR::TRP1, pnc1Δ strain, 25 mM isonicotinamide): 10^3 fold | effect on base exchange (Yeast Sir2 [5]; [8]): Base exchange is inhibited | Ki (Yeast Sir2 [5]; read-out: Ki for isonicotinamide): 60 mM | increase in colony growth on FOA-containing medium ([6]; TEL-VIIL-URA3, DOT1 strain UCC4562, 25 mM isonicotinamide): ~10 fold | enhanced silencing of telomeric reporter (growth on FOA) ([6]; TEL-VIIL-URA3, dot1Δ strain UCC4554, 25 mM isonicotinamide): > 10^3 fold | growth phenotype on FOA medium ([6]; TEL-VIIL-URA3, 25 mM isonicotinamide added to medium with 5 mM nicotinamide): intermediate growth phenotype | increase in colony growth on FOA-containing medium ([6]; TEL-VR-URA3, pnc1Δ strain, 25 mM isonicotinamide): > 10^4 fold | colony survival on non-selective medium ([6]; YPD control medium, 25 mM isonicotinamide): no effect | silencing of ADE2 integrated at TEL-VR ([6]; data not shown): increased | effect on telomeric reporter gene ([6]; npt1Δ strain, 25 mM isonicotinamide): enhances the expression of a telomeric reporter gene | increase of deacetylation activity (Yeast Sir2 [7]; [8]): ≤ 45% | effect on rates of deacetylation (Yeast Sir2 [7]; isonicotinamide to 100 mM, absence of nicotinamide): do not substantially affect rates of deacetylation

From patent US8835467B2, “SIR2 regulation” (Albert Einstein College of Medicine of Yeshiva University, priority 2003, dated 2014)
